# From patent US20210283107A1, “Methods to Expand the Spectrum of Gram-Positive Antibiotics” (NORTH CAROLINA STATE UNIVERSITY, priority 2016, published 2021)
# Where two headings read alike, the source gives them in different places.
# How the values were obtained:
# [1] = test system: A. baumannii strain 5075 (AB5075); experiment: Broth microdilution MIC determination of compound alone; format: cell-based; conditions: Acinetobacter baumannii
# Summary of the method: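 MIC by twofold serial dilution in cation-adjusted Mueller-Hinton broth, inoculum 5×10^5 CFU/mL from 6 h day cultures, top concentration 200 μM (64 μg/mL). Incubated stationary at 37° C. for 16 hours; MIC taken as lowest concentration with no visible growth.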
# AB5075 [2] = experiment: Checkerboard assay for FIC determination with colistin; format: cell-based, Acinetobacter baumannii; conditions: chequerboard, ΣFIC≥2 considered antagonistic
# Protocol: Against AB5075, we determined that the ΣFIC with compound 1 to be 17 and the ΣFIC with compound 10 to be 33. These ΣFIC values indicate that both compounds are highly antagonistic with colistin as a ΣFIC≥2 is considered antagonistic.
# Day Cultures (6 h) of A. baumannii 5075 were subcultured to 5×10^5 CFU/mL in cation adjusted Mueller-Hinton broth (CAMHB). 100 μL of the inoculated media was distributed into all wells of a 96-well plate except well 1A. Inoculated CAMHB (200 μL) containing compound (twice the highest concentration tested) was added to well 1A, and 100 μL of the same sample was added to wells 2A-12A. The contents in column A were mixed five times before 100 μL was transferred to column B. The contents of column B were mixed 5 times before transferring to column C. This process was repeated with the remainder of the columns up to column G. Column H was not mixed to allow determination of the antibiotic MIC alone. […] Row 12 was not mixed so that the MIC of the compound alone could be determined. The MICs of both compound and antibiotic alone were recorded, as well as the wells containing the combination. The ΣFICs were calculated as follows: ΣFIC=FIC (Compound)+FIC (antibiotic), where FIC (compound) is the MIC of the compound in the combination/MIC of the compound alone and the FIC (antibiotic) is the MIC of the antibiotic in combination/the MIC of the antibiotic alone. […]
# AB5075 [3] = experiment: G. mellonella model infected with AB5075, survival; format: in vivo, Galleria mellonella
# Protocol: Galleria mellonella larvae (Speedy Worm, Alexandria, Minn.) were used within ten days of shipment from the vendor. After reception of worms, larvae were kept in the dark at room temperature for at least 24 h before infection. Larvae weighing between 200 to 300 mg were used in the survival assay. Using a 10 μL glass syringe (Hamilton, Reno, Nev.) fitted with a 30 G needle (Exel International, St. Petersburg, Fl), 5 μL of the desired compound and concentration were injected into the last left proleg. After 2.5 h, a second 5 μL injection containing 6×10^5 CFU of Acinetobacter baumannii 5075 was injected into the second to last left proleg. Injected worms were left at room temperature in the dark while being assessed at 24 h intervals over 6 days. […] Experiment was repeated 7 times using 10 larvae per experimental group.
# AB5075 [4] = experiment: H33342 accumulation assay (efflux); format: cell-based, Acinetobacter baumannii
# Protocol: In addition to the evaluation of the relationship between compounds 1 and 4 and colistin, the impact of compound 1 on efflux was evaluated using AB5075 and a bisBenzimide H33342 trihydrochloride (H33342) accumulation assay. Using a procedure adapted from Coldham et al. (A 96-well plate fluorescence assay for assessment of cellular permeability and active efflux in Salmonella enterica serovar Typhimurium and Escherichia coli. J Antimicrob Chemother, 2010. 65(8): p. 1655-63) and Richmond et al. (Efflux in Acinetobacter baumannii can be determined by measuring accumulation of H33342 (bis-benzamide). J Antimicrob Chemother, 2013. 68(7): p. 1594-600), the effect of no treatment, a known inhibitor carbonyl cyanide-m-chlorophenyl hydrazone (CCCP), and compound 1 on efflux was analyzed over 30 minutes and in two different treatment variations. Fluorescence was read using excitation and emission filters of 355 and 460 nm, and the values were processed in excel. The first analysis was performed immediately after treating the bacteria with compound 1 at both 10 and 30 μM and CCCP at 25 μM.
# The second analysis was performed after exposing the bacteria to compound 1 at 30 μM for 5-hours shaking at 37° C.
Structure (SMILES),MIC [1] [µM],ΣFIC with colistin (AB5075 [2]),survival rate after 6 days (AB5075 [3]; combination treatment of clarithromycin (25 mg/kg) and compound 1 (100 mg/kg)) [%],survival after 6 days (AB5075 [3]; compound 1 alone at 100 mg/kg) [%],"H33342 accumulation, fluorescence at 355 and 460 nm (AB5075 [4]; 10 μM compound, immediately following exposure, time 0 minutes)","H33342 accumulation, fluorescence at 355 and 460 nm (AB5075 [4]; 10 μM compound, immediately following exposure, time 10 minutes)","H33342 accumulation, fluorescence at 355 and 460 nm (AB5075 [4]; 10 μM compound, immediately following exposure, time 20 minutes)","H33342 accumulation, fluorescence at 355 and 460 nm (AB5075 [4]; 10 μM compound, immediately following exposure, time 30 minutes)","H33342 accumulation, fluorescence at 355 and 460 nm (AB5075 [4]; 30 μM compound, following exposure for 5 hours, time 0 minutes)","H33342 accumulation, fluorescence at 355 and 460 nm (AB5075 [4]; 30 μM compound, following exposure for 5 hours, time 10 minutes)","H33342 accumulation, fluorescence at 355 and 460 nm (AB5075 [4]; 30 μM compound, following exposure for 5 hours, time 20 minutes)","H33342 accumulation, fluorescence at 355 and 460 nm (AB5075 [4]; 30 μM compound, following exposure for 5 hours, time 30 minutes)","H33342 accumulation, fluorescence at 355 and 460 nm (AB5075 [4]; 30 μM compound, immediately following exposure, time 0 minutes)","H33342 accumulation, fluorescence at 355 and 460 nm (AB5075 [4]; 30 μM compound, immediately following exposure, time 10 minutes)","H33342 accumulation, fluorescence at 355 and 460 nm (AB5075 [4]; 30 μM compound, immediately following exposure, time 20 minutes)","H33342 accumulation, fluorescence at 355 and 460 nm (AB5075 [4]; 30 μM compound, immediately following exposure, time 30 minutes)",H33342 fluorescence versus untreated (AB5075 [4]; after exposure to compound at 30 μM for 5 hours),"change in H33342 fluorescence over 30 minutes (AB5075 [4]; immediately after treating, compound 1 at both 10 and 30 μM, CCCP at 25 μM)","MIC ([1]; compound alone, AB5075, read-out: MIC) [µM]"
Nc1nc(-c2ccc(NC(=O)c3cc(Cl)cc(Cl)c3)cc2)c[nH]1 [Compound 1],100,17,42,5,"14,084.3 ± 2,839.3","12,812.4 ± 2,718.2","11,627.8 ± 3,119","12,147.8 ± 2,742.8","12,226.7 ± 4,671.7","15,247 ± 5,499.3","25,603.1 ± 5,212.9","33,441.1 ± 3,260.3","21,152.2 ± 5,161.7","21,651 ± 8,731.7","19,748.3 ± 9,182.4","19,562.4 ± 9,574",comparable fluorescence values,a decrease in fluorescence,
Nc1nc(-c2ccc(NC(=O)c3cc(Br)cc(Br)c3)cc2)c[nH]1 [Compound 4],,,,,,,,,,,,,,,,,,,100
